Experimental data taken from US20120244567A1, “HUMAN EMBRYONIC STEM CELLS FOR HIGH THROUGHOUT DRUG SCREENING” (BUCK INSTITUTE FOR RESEARCH ON AGING, priority 2009, published 2012).
Where a name gives a salt, the structure may show the parent alone. Read-outs that look alike come from different tables or passages of the source.

Assays:
hESC-derived NSCs = experiment: ATP assay in hESC-derived NSCs (96-well, primary screen and retest); assay type: cell-based, human; parameters: cytotoxicity: dose or concentration left out as unconfirmed; toxicity to NSCs (reduced ATP concentrations) / ATP levels in NSC population: unit of the concentration uncertain; settings: for toxicity to NSCs (reduced ATP concentrations): 1 (unit uncertain), 2.5 (unit uncertain) and 10 (unit uncertain), treated NSCs versus untreated NSCs, untreated and treated hESCs
Experimental: EBs were then cultured for additional 2-3 days in suspension in neural induction media containing DMEM/F12 with Glutamax, 1×NEAA, 1×N2 and FGF2 (20 ng/ml) prior to attachment on cell culture plates. […] To obtain a pure population of NSCs, rosettes were manually isolated and dissociated into single cells using Accutase. The NSCs population was expanded in Neurobasal media containing 1×NEAA, 1×L-Glutamine (2 mM), 1×B27, LIF and FGF2 20 ng/ml.
Media was changed every day for hESCs and every other day for NSCs and additionally changed prior to drug treatment. The cells were treated with compounds from the NINDS library diluted in […] of either ESC or NSC media to a final concentration of 2.5 mM in 0.01% DMSO. […] For all sampling, ESC and NSC plates were processed in parallel for one drug or control condition at a time.
For ATP measurements, the media was removed, cells were washed 1× in milliQ water and reconstituted in […] ATP-Lite Mammalian Lysis Buffer and shaken for 5 minutes. Two […] aliquots of lysed cells were replated onto separate 96 well plates for later protein measurements.
To identify compounds that are toxic to hESCs, hESC-derived NSCs, or both, we screened 720 FDA-approved drugs of the NINDS collection by testing the toxicity of each drug at a dose of 2.5 mM. For endpoint measurement of cell death caused by drug toxicity, we used a widely accepted ATP assay that measures changes in ATP level as an indicator of cellular response to cell death. In this assay, total ATP content per well was measured and normalized to the total cellular protein.
Three concentrations of each compound (1 mM, 2.5 mM and 10 mM) were used in the retest.

[1] = test system: hESCs and hESC-derived NSCs; experiment: Comparative ATP screening on hESCs and hESC-derived NSCs (ratio ESC/NSC or NSC/ESC); parameters: hit class in primary screen / ESC/NSC: dose or concentration left out as unconfirmed; settings: for hit class in primary screen: NINDS primary screen, ATP relative to DMSO controls
From the text: Hits were defined based on the ability of a compound to affect ATP levels relative to DMSO controls on each plate.

[2] = Homo sapiens, NINDS primary screen, 48 hours, read-out: NSC ATP values below the control mean
[3] = Prestwick screening data, group: Toxic To NSC (and not ESCs)
[4] = Prestwick screening data, group: Toxic to both but (5x) more toxic to ESCs
[5] = Prestwick screening data, group: Toxic To ESCs (and not NSCs)
[6] = NINDS screening data, […], ATP assay, 48 hours

Molecule: CN1CCN(CC(=O)N2c3ccccc3C(=O)Nc3cccnc32)CC1 [pirenzepine HCL]
- cytotoxicity (hESC-derived NSCs; [2]): ≥ 15%
- toxicity to NSCs (reduced ATP concentrations) (hESC-derived NSCs; retest): dose-dependent specific toxicity
- hit class in primary screen [1]: NSC Killers

Molecule: CN(Cc1cnc2nc(N)nc(N)c2n1)c1ccc(C(=O)N[C@@H](CCC(=O)O)C(=O)O)cc1 (racemic) [Amethopterin (R,S)]
- ESC/NSC [1, 3]: 6.45

Molecule: CC[C@@]1(O)C(=O)OCc2c1cc1n(c2=O)Cc2cc3ccccc3nc2-1 [Camptothecine (S,+)]
- NSC/ESC [1, 4]: 14.46

Molecule: CCC(=O)O[C@]1(C(=O)SCF)[C@H](C)C[C@H]2[C@@H]3C[C@H](F)C4=CC(=O)C=C[C@]4(C)[C@@]3(F)[C@@H](O)C[C@@]21C [Fluticasone Propionate]
- NSC/ESC [1, 5]: 1.954

Molecule: CN1Cc2c(ccc3c2OCO3)C2C(O)Cc3cc4c(cc3C21)OCO4 (stereo not drawn) [Chelidonine (+)]
- ESC/NSC [1, 3]: 1.999

Molecule: CC(=O)O[C@H]1C(=O)[C@@]2(C)[C@H]([C@H](OC(=O)c3ccccc3)[C@]3(O)C[C@H](OC(=O)[C@H](O)[C@@H](NC(=O)c4ccccc4)c4ccccc4)C(C)=C1C3(C)C)[C@]1(OC(C)=O)CO[C@@H]1C[C@@H]2O [Paclitaxel]
- NSC/ESC [1, 4]: 5.325

Molecule: CCCCCCCCCCCCCCCC[n+]1ccccc1 [Cetylpyridinium Chloride]
- ESC/NSC [1]: 109.4

Molecule: CCc1nc(N)nc(N)c1-c1ccc(Cl)cc1 [Pyrimethamine]
- ESC/NSC [1, 3]: 2.009

Molecule: COC(=O)Nc1nc2ccc(SC(C)C)cc2[nH]1 [Methiazole]
- ESC/NSC [1, 3]: 3.01

Molecule: CC(C)(C)CC(C)(C)c1ccc(O)c(Cc2ccc(Cl)cc2Cl)c1 [Clofoctol]
- cytotoxicity (hESC-derived NSCs; [2]): ≥ 15%
- toxicity to NSCs (reduced ATP concentrations) (hESC-derived NSCs; retest): dose-dependent specific toxicity
- hit class in primary screen [1]: NSC Killers

Molecule: [O-][n+]1ccccc1[S-].[O-][n+]1ccccc1[S-].[Zn+2] [Pyrithione Zinc]
- ESC/NSC [1]: 116.4

Molecule: O=c1[nH]c(=O)n([C@H]2C[C@H](O)[C@@H](CO)O2)cc1C(F)(F)F [Trifluridine]
- ESC/NSC [1, 3]: 2.955

Molecule: Cc1ccnc(NS(=O)(=O)c2ccc(N)cc2)n1 [Sulfamerazine]
- NSC/ESC [1, 5]: 2.003

Molecule: COc1ccc(C[C@H](N)C(=O)N[C@H]2[C@@H](O)[C@H](n3cnc4c(N(C)C)ncnc43)O[C@@H]2CO)cc1 [Puromycin Dihydrochloride]
- NSC/ESC [1, 4]: 10.84

Molecule: CC[C@@H](C(=O)[C@@H](C)[C@@H](O)[C@H](C)CCc1ccc(C)c(O)c1C(=O)O)[C@H]1O[C@](CC)([C@H]2CC[C@](O)(CC)[C@H](C)O2)C[C@@H]1C [Lasalocid Sodium Salt]
- ESC/NSC [1, 3]: 2.052

Molecule: COC1=CC(=O)C[C@@H](C)[C@]12Oc1c(Cl)c(OC)cc(OC)c1C2=O [griseofulvin]
- cytotoxicity (hESC-derived NSCs; [2]): ≥ 15%
- hit class in primary screen [1]: NSC Killers

Molecule: (−)-Levobunolol Hydrochloride
- NSC/ESC [1, 5]: 1.689

Molecule: CCCCCCCCCCCCCCCC[N+](C)(C)C.[Br-] [Cetrimonium Bromide]
- ESC/NSC [1, 6]: 5.402

Molecule: CNc1ccc2oc(C[C@H]3O[C@@]4(CC[C@H]3C)O[C@H]([C@H](C)C(=O)c3ccc[nH]3)[C@H](C)C[C@H]4C)nc2c1C(=O)O [Calcimycin]
- ESC/NSC [1, 6]: 377.6

Molecule: CC[N+]1(C)[C@@H]2CC[C@H]1CC(OC(=O)[C@@H]1CC[C@@](C(=O)OC3C[C@H]4CC[C@@H](C3)[N+]4(C)CC)(c3ccccc3)c3ccccc31)C2.[Cl-].[Cl-] (stereo partly drawn) [Beta-Belladonnine Dichloroethylate]
- NSC/ESC [1, 5]: 2.717

Molecule: C[n+]1cc2c3c(ccc2c2ccc4cc5c(cc4c21)OCO5)OCO3 [Sanguinarine Nitrate]
- ESC/NSC [1, 6]: 8.446

Molecule: CCN(CC)C(=S)SSC(=S)N(CC)CC [Disulfiram]
- NSC/ESC [1, 5]: 10.3

Molecule: COc1ccc2c(c1OC)CN1CCc3cc4c(cc3C1C2)OCO4 (stereo not shown) [(D,L)-Tetrahydroberberine]
- NSC/ESC [1, 5]: 2.336

Molecule: COc1cccc2c1C(=O)c1c(O)c3c(c(O)c1C2=O)C[C@@](O)(C(=O)CO)C[C@@H]3O[C@H]1C[C@H](N)[C@H](O)[C@H](C)O1 [Doxorubicin Hydrochloride]
- NSC/ESC [1, 4]: 8.906

Molecule: C[n+]1cc2c3c(ccc2c2ccc4cc5c(cc4c21)OCO5)OCO3 [Sanguinarine]
- ESC/NSC ([1]; Prestwick screening data, […]): 102.6

Molecule: CCCCC(CC)CN1CN(CC(CC)CCCC)CC(C)(N)C1 (stereo not shown) [Hexetidine]
- cytotoxicity (hESC-derived NSCs; [2]): ≥ 15%
- hit class in primary screen [1]: NSC Killers

Molecule: Clofilium Tosylate
- NSC/ESC [1, 5]: 2.184

Molecule: COc1cc(-c2ccc(=O)[nH]n2)ccc1OC(F)F [Zardaverine]
- NSC/ESC [1, 5]: 1.976

Molecule: COc1ccc(CN(CCN(C)C)c2ccccn2)cc1 [Pyrilamine Maleate]
- NSC/ESC [1, 5]: 1.934

Molecule: CC(=O)Oc1ccc(C(c2ccc(OC(C)=O)cc2)c2ccccn2)cc1 [Bisacodyl]
- ESC/NSC [1, 3]: 2.701

Molecule: Cl.Cl.c1ccc2c3c([nH]c2c1)C1C2CCC(C4CCCNC42)N1CC3 (stereo not shown) [Nitrarine Dihydrochloride]
- NSC/ESC [1, 5]: 1.949

Molecule: CO[C@H]1C[C@H](O[C@@H]2/C(C)=C/C[C@@H]3C[C@@H](C[C@]4(CC[C@H](C)[C@@H](C5CCCCC5)O4)O3)OC(=O)[C@@H]3C=C(C)/C(=N/O)[C@H]4OC/C(=C\C=C\[C@@H]2C)[C@]43O)O[C@@H](C)[C@@H]1O [Selamectin]
- cytotoxicity at 2500 µM (hESC-derived NSCs; Homo sapiens, NINDS primary screen, 2.5 mM, 48 hours, read-out: NSC ATP values below the control mean): ≥ 15%
- toxicity to NSCs (reduced ATP concentrations) (hESC-derived NSCs; retest): dose-dependent specific toxicity
- effect on NSC survival among dose responsive compounds (hESC-derived NSCs; retest, FIG. 2 panel B): most dramatic effect on NSC survival
- hit class in primary screen [1]: NSC Killers

Molecule: C1CCC(C(CC2CCCCN2)C2CCCCC2)CC1.O=C(O)/C=C\C(=O)O (stereo not shown) [Perhexilline Maleate]
- hit class in primary screen [1]: NSC Killers

Molecule: C[C@@]12C(=O)OC(=O)[C@]1(C)[C@H]1CC[C@@H]2O1 [Cantharidin]
- ESC/NSC ([1]; Prestwick screening data, group: Toxic to both but (>5x) more toxic to NSCs): 6.171

Molecule: C[C@H]1CC[C@]2(NC1)O[C@H]1C[C@H]3[C@@H]4CC[C@H]5C[C@@H](O[C@@H]6O[C@H](CO)[C@H](O[C@@H]7O[C@H](CO)[C@@H](O)[C@H](O[C@@H]8OC[C@@H](O)[C@H](O)[C@H]8O)[C@H]7O[C@@H]7O[C@H](CO)[C@@H](O)[C@H](O)[C@H]7O)[C@H](O)[C@H]6O)CC[C@]5(C)[C@H]4CC[C@]3(C)[C@H]1[C@@H]2C [Tomatine]
- ESC/NSC ([1]; Prestwick screening data, […]): 9.242

Molecule: CC1=CC(=O)c2ccccc2C1=O [Menadione]
- cytotoxicity (hESC-derived NSCs; [2]): ≥ 15%
- toxicity to NSCs (reduced ATP concentrations) (hESC-derived NSCs; retest): dose-dependent specific toxicity
- hit class in primary screen [1]: NSC Killers

Molecule: CC1(C)O[C@@H]2C[C@H]3[C@@H]4C[C@H](F)C5=CC(=O)CC[C@]5(C)[C@H]4[C@@H](O)C[C@]3(C)[C@]2(C(=O)CO)O1 [Flurandrenolide]
- NSC/ESC [1, 5]: 2.308

Molecule: Fc1ccc(C(OCCN2CCN(CCCc3ccccc3)CC2)c2ccc(F)cc2)cc1 [Gbr 12909 Dihydrochloride]
- NSC/ESC [1, 5]: 1.754
